In patent US9518088B2, “Peptide-phospholipid conjugates” (Indiana University Research and Technology Corporation, priority 2011, dated 2016):
Like-named read-outs stand apart in the source and are kept apart here.

Columns and labels:
CD36 macrophage receptor = molecular target: T1, CD36 macrophage receptor (Mus musculus, UniProt Q08857); assay: CD36 macrophage receptor binding competition assay (biotinylated CuOxLDL binding to J774 macrophages); parameters: species or system murine
T1 construct: endogenous in cells; host or cells: J774 murine macrophage cell line
Source text: Data are given as relative light units (RLU) per 100 ms (milliseconds). The plot is a representative experiment chosen from among at least four experiments. […] Data are shown as mean±SD (Standard Deviation) of B/B0 from 2 independent experiments with triplicate determination. […] Data are shown as mean±SD of B/B0 from two independent experiments with triplicate determination. Data in FIG. 3B and FIG. 3C were produced in parallel experiments.
The fixed concentration of biotinylated CuOxLDL (1.8 pmol apoB/mL, corresponding 1 μg apoB/mL or 0.14 nmol PC-epitopes/mL) was preincubated with compound 6, the control peptide TGTKGG, CuOxLDL, or native LDL, added at the concentrations indicated on the graphs, and then tested for binding as described in the experimental section. The highest CuOxLDL concentration tested was 200 μg/mL, which corresponds to approximately 28.3 nmoles of PC-epitopes/mL, as estimated from the previous observation that 1 mole of apoB-100 from CuOxLDL contains 78±15 moles of covalently attached phosphorus^10, which it is assumed are PC-epitopes only. The concentration of native LDL is plotted at equal protein concentration to CuOxLDL (and thus not as molar concentration of PC-epitopes). Each data point represents the mean and SD of 2 independent experiments of triplicate wells.
Each of peptide-phospholipid conjugates 6 and 23-27 were tested as competitors in a CD36 macrophage receptor binding competition assay, where fixed concentrations of CuOxLDL were incubated with the serially diluted competitor and controls in PBS buffer. The IC50 of each competitor is reported below in Table 1, confirming the affinity of the compounds of the invention for the CD36 macrophage receptor:
Binding of biotinylated OxLDL ligands to murine macrophages plated in microtiter wells was assessed by a chemiluminescent binding assay. Isolated human LDL was biotinylated according to manufacturer's protocol (Catalog No. 21326; Pierce Biotechnology). Native and biotinylated native LDL were subjected to copper sulfate oxidation in parallel to prepare unlabelled and biotinylated CuOxLDL ligands, respectively. It has been previously shown that CuOxLDL contains approximately 78 moles of PC-epitopes per mole of apoB-100 (the sole protein on LDL). The biotinylated native LDL and CuOxLDL ligands of equal protein concentration were serially diluted and tested for binding to adherent macrophages. The specificity of the binding of biotinylated CuOxLDL to macrophages was tested in competition experiments, where fixed concentrations of biotinylated CuOxLDL were incubated with the serially diluted competitor and controls in PBS. The ligand-competitor solutions were incubated overnight at 4° C. Murine macrophages from the J774 cell line were cultured in 10% fetal bovine serum in DMEM (DMEM-10) and plated in 100 μL L929-fibroblast conditioned media at 100,000 or 25,000 cells/well, respectively, in sterile 96-well flat-bottom white plates (Greiner Bio-One). The plating media consisted of 20% L929-fibroblast conditioned DMEM-10 and 80% fresh DMEM-10 and served as a source of growth factors, including macrophage colony-stimulating factor. After 72 hours, the plates were washed gently 5 times with PBS using a microtiter plate washer (Dynex Technologies, Chantilly, Va.), and wells were blocked with ice-cold 200 μL DMEM for 30 min, while plates were kept on ice. After washing, macrophages were incubated with ice-cold ligand and ligand-competitor solutions (100 μL/well) for 2 hours on ice, washed again, and fixed with ice-cold 3.7% formaldehyde in PBS for 30 min in the dark. After fixing the macrophages, the remaining part of the assay was carried out at room temperature. Macrophage-bound biotinylated OxLDL ligands were detected with NeutrAvidin-conjugated alkaline phosphatase (Pierce Biotechnology), LumiPhos 530 (Lumigen, Southfield, Mich.), and a Dynex Luminometer (Dynex Technologies). […]

macrophages and T-cells = assay: Affinity for macrophages and T-cells; format: cell-based
[1] = Stability of the conjugates
[2] = Solubility in water / aqueous buffers

T1 sequence (Q08857 whole entry): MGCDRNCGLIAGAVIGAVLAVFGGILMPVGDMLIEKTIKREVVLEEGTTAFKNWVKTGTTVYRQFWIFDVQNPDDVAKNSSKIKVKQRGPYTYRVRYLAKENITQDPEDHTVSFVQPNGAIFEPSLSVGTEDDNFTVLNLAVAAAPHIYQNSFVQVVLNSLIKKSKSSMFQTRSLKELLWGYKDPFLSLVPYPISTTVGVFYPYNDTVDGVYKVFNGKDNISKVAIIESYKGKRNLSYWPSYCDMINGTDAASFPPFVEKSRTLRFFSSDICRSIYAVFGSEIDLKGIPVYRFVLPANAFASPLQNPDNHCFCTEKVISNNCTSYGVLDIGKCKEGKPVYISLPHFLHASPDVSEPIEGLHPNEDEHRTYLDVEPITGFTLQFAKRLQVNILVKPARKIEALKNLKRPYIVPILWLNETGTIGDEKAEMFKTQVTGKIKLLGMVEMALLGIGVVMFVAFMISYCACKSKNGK

SMILES | IC50 (CD36 macrophage receptor) [µM] | stability [1] | water solubility / solubility in aqueous buffers [2] | further results
CCCCCCCCCCCCCCCC(=O)OC[C@H](COP(=O)([O-])OCC[N+](C)(C)C)OC(=O)CCCCN(C)CCCC[C@H](NC(=O)[C@H](C)NC(C)=O)C(=O)NCC(=O)NCC(=O)O [Compound 24] | 131 | – | – | –
CCCCCCCCCCCCCCCC(=O)OC[C@H](COP(=O)([O-])OCC[N+](C)(C)C)OC(=O)CCCCN(C)CCCC[C@H](NC(=O)[C@@H](NC(=O)CNC(=O)[C@@H](NC(C)=O)[C@@H](C)O)[C@@H](C)O)C(=O)NCC(=O)NCC(=O)O [Compound 6] | 60 | stable | soluble in aqueous buffers | competition with biotinylated CuOxLDL binding to macrophages (CD36 macrophage receptor; J774 macrophages, fixed biotinylated CuOxLDL 1.8 pmol apoB/mL (1 μg apoB/mL), FIG. 3B/3C, mean of 2 independent experiments, triplicate wells): more than 99%; affinity for macrophages and T-cells (macrophages and T-cells): showed affinity for macrophages and T-cells
CCCCCCCCCCCCCCCC(=O)OC[C@H](COP(=O)([O-])OCC[N+](C)(C)C)OC(=O)CCCCN(C)CCCC[C@H](NC(=O)[C@H](Cc1ccccc1)NC(=O)[C@H](C)NC(C)=O)C(=O)NCC(=O)NCC(=O)O [Compound 27] | 47 | – | – | –
CCCCCCCCCCCCCCCC(=O)OC[C@H](COP(=O)([O-])OCC[N+](C)(C)C)OC(=O)CCCCCCCCC[C@H](NC(=O)[C@@H](NC(=O)CNC(=O)[C@@H](NC(C)=O)[C@@H](C)O)[C@@H](C)O)C(=O)NCC(=O)N[C@@H](Cc1ccc(O)cc1)C(=O)O [Compound 5] | – | stable | poor water solubility | –
CCCCCCCCCCCCCCCC(=O)OCC(COP(=O)([O-])OCC[N+](C)(C)C)OC(=O)CCCCOCCCC[C@H](NC(=O)[C@H](C)NC(=O)[C@H](C)NC(C)=O)C(=O)N[C@@H](C)C(=O)N[C@@H](Cc1ccc(O)cc1)C(=O)O (stereo partly shown) [Compound 3] | – | stable | poor water solubility | –
CCCCCCCCCCCCCCCC(=O)OC[C@H](COP(=O)([O-])OCC[N+](C)(C)C)OC(=O)CCCCOCCCC[C@H](NC(=O)[C@@H](NC(=O)CNC(=O)[C@@H](NC(C)=O)[C@@H](C)O)[C@@H](C)O)C(=O)NCC(=O)N[C@@H](Cc1ccc(O)cc1)C(=O)O [Compound 4] | – | stable | poor water solubility | –
CCCCCCCCCCCCCCCC(=O)OC[C@H](COP(=O)([O-])OCC[N+](C)(C)C)OC(=O)CCCCN(C)CCCC[C@H](NC(C)=O)C(=O)NCC(=O)NCC(=O)O [Compound 23] | – | – | – | IC50 (CD36 macrophage receptor; competitor serially diluted, fixed concentration of CuOxLDL, PBS buffer, J774 macrophages, read-out: IC50): 38 µM
CCCCCCCCCCCCCCCC(=O)OC[C@H](COP(=O)([O-])OCC[N+](C)(C)C)OC(=O)CCCCN(C)CCCC[C@H](NC(=O)[C@@H](NC(C)=O)C(C)C)C(=O)NCC(=O)NCC(=O)O [Compound 25] | 55 | – | – | –
CCCCCCCCCCCCCCCC(=O)OC[C@H](COP(=O)([O-])OCC[N+](C)(C)C)OC(=O)CCCCN(C)CCCC[C@H](NC(=O)[C@H](Cc1ccccc1)NC(C)=O)C(=O)NCC(=O)NCC(=O)O [Compound 26] | 47 | – | – | –
